Test results as given in paper PMC7377239, “Cardiovascular Effects of Polychlorinated Biphenyls and Their Major Metabolites” (Environmental Health Perspectives, 2020).
Structures can show the parent of a compound that is named as a salt. Where two headings read alike, the source gives them in different places.

What was measured:
[1] = tested on: iCell endothelial cells (human iPSC-derived ECs); assay: Tube formation (tubulogenesis) assay in iCell endothelial cells, 18 h; type: cell-based; settings: Homo sapiens, Endothelial cell, iPSC-EC tube formation, 18 hr; for activity at 0.1 µM: 0.10 µM; for minimal effective concentration: top concentration 100.00 µM
Outline: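 iCell ECs (passages 1–5) seeded 7,500 cells/well on reduced-growth-factor Geltrex in starvation medium, exposed overnight at 37°C to compounds in triplicate concentration–response (0.5% DMSO vehicle). Calcein AM staining, 4× imaging, angiogenesis image analysis; readouts normalized to vehicle, four-parameter logistic fit, POD at 1 SD of vehicle; 100 μM assigned NOAEL if no response.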

[2] = tested on: iCell endothelial cells (human iPSC-derived ECs); assay: High-content imaging cytotoxicity in iCell endothelial cells, 24 h; type: cell-based; settings: Homo sapiens, Endothelial cell, iPSC-EC, 24 hr; for viability at 0.1 µM / activity at 0.1 µM: 0.10 µM; for minimal effective concentration: top concentration 100.00 µM
Outline: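 Human iPSC-derived endothelial cells (passages 1–5) were grown to a fibronectin-coated monolayer, then exposed 24 h at 37 °C with 0.5% DMSO vehicle. Staining was Hoechst 33342, MitoTracker Orange and calcein AM, read by high-content imaging. Point of departure came from 4-parameter logistic fits, with a 1-SD vehicle cutoff and 100 µM as the top concentration.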

[3] = 0.00 µM control = 100.00, read-out: endo.mtl.18hr
[4] = 0.00 µM control = 100.00, read-out: endo.tlps.18hr
[5] = 0.00 µM control = 100.00, read-out: endo.tta.18hr
[6] = 0.00 µM control = 100.00, read-out: endo.ttl.18hr
[7] = 0.00 µM control = 100.00, read-out: endo.cyto.24hr
[8] = 0.00 µM control = 100.00, read-out: endo.mito.24hr
[9] = 0.00 µM control = 100.00, read-out: endo.mitoint.24hr
[10] = 0.00 µM control = 100.00, read-out: endo.nma.24hr
[11] = 0.00 µM control = 100.00, read-out: endo.tc.24hrs
[12] = read-out: endo.mitoint.24hr POD

SMILES: O=S(=O)(O)Oc1cc(-c2ccccc2)ccc1Cl [3-yl PCB 3 sulfate]
- activity at 0.01 µM [1, 3]: 102%
- activity at 0.01 µM [1, 4]: 104%
- activity at 0.01 µM [1, 5]: 152%
- activity at 0.01 µM [1, 6]: 139%
- activity at 0.1 µM [1, 3]: 88.6%
- activity at 0.1 µM [1, 4]: 127%
- activity at 0.1 µM [1, 5]: 93.5%
- activity at 0.1 µM [1, 6]: 88.4%
- activity at 1 µM [1, 3]: 92.1%
- activity at 1 µM [1, 4]: 89.4%
- activity at 1 µM [1, 5]: 106%
- activity at 1 µM [1, 6]: 101%
- activity at 10 µM [1, 3]: 75.1%
- activity at 10 µM [1, 4]: 68.7%
- activity at 10 µM [1, 5]: 61.4%
- activity at 10 µM [1, 6]: 59.2%
- activity at 100 µM [1, 3]: 83.7%
- activity at 100 µM [1, 4]: 46.7%
- activity at 100 µM [1, 5]: 78.8%
- activity at 100 µM [1, 6]: 79%
- minimal effective concentration ([1]; read-out: endo.mtl.18hr POD): 100 µM
- minimal effective concentration ([1]; read-out: endo.tlps.18hr POD): 6.75 µM
- minimal effective concentration ([1]; read-out: endo.tta.18hr POD): 100 µM
- minimal effective concentration ([1]; read-out: endo.ttl.18hr POD): 100 µM
- viability at 0.01 µM [2, 7]: 93.7%
- activity at 0.01 µM [2, 8]: 93.8%
- activity at 0.01 µM [2, 9]: 120%
- activity at 0.01 µM [2, 10]: 104%
- viability at 0.01 µM [2, 11]: 93.7%
- viability at 0.1 µM [2, 7]: 93%
- activity at 0.1 µM [2, 8]: 93.3%
- activity at 0.1 µM [2, 9]: 105%
- activity at 0.1 µM [2, 10]: 104%
- viability at 0.1 µM [2, 11]: 93%
- viability at 1 µM [2, 7]: 102%
- activity at 1 µM [2, 8]: 103%
- activity at 1 µM [2, 9]: 104%
- activity at 1 µM [2, 10]: 97.9%
- viability at 1 µM [2, 11]: 102%
- viability at 10 µM [2, 7]: 96.5%
- activity at 10 µM [2, 8]: 96.5%
- activity at 10 µM [2, 9]: 104%
- activity at 10 µM [2, 10]: 99.6%
- viability at 10 µM [2, 11]: 96.5%
- viability at 100 µM [2, 7]: 96.6%
- activity at 100 µM [2, 8]: 96.5%
- activity at 100 µM [2, 9]: 98.4%
- activity at 100 µM [2, 10]: 99.8%
- viability at 100 µM [2, 11]: 96.6%
- minimal effective concentration ([2]; read-out: endo.cyto.24hr POD): 100 µM
- minimal effective concentration ([2]; read-out: endo.mito.24hr POD): 100 µM
- minimal effective concentration [2, 12]: 100 µM
- minimal effective concentration ([2]; read-out: endo.nma.24hr POD): 100 µM
- minimal effective concentration ([2]; read-out: endo.tc.24hrs POD): 100 µM

SMILES: Oc1ccc(-c2ccc(Cl)cc2)cc1 [4'-OH PCB3]
- activity at 0.01 µM [1, 3]: 87.5%
- activity at 0.01 µM [1, 4]: 80.1%
- activity at 0.01 µM [1, 5]: 97.5%
- activity at 0.01 µM [1, 6]: 93.3%
- activity at 0.1 µM [1, 3]: 89.4%
- activity at 0.1 µM [1, 4]: 84.6%
- activity at 0.1 µM [1, 5]: 89.9%
- activity at 0.1 µM [1, 6]: 86.6%
- activity at 1 µM [1, 3]: 90.3%
- activity at 1 µM [1, 4]: 73.5%
- activity at 1 µM [1, 5]: 82.7%
- activity at 1 µM [1, 6]: 81.3%
- activity at 10 µM [1, 3]: 55.5%
- activity at 10 µM [1, 4]: 31.4%
- activity at 10 µM [1, 5]: 35.4%
- activity at 10 µM [1, 6]: 35%
- activity at 100 µM [1, 3]: 49.2%
- activity at 100 µM [1, 4]: 11.3%
- activity at 100 µM [1, 5]: 0.34%
- activity at 100 µM [1, 6]: 0.48%
- minimal effective concentration ([1]; read-out: endo.mtl.18hr POD): 1.21 µM
- minimal effective concentration ([1]; read-out: endo.tlps.18hr POD): 0.19 µM
- minimal effective concentration ([1]; read-out: endo.tta.18hr POD): 1.16 µM
- minimal effective concentration ([1]; read-out: endo.ttl.18hr POD): 1.12 µM
- viability at 0.01 µM [2, 7]: 96.3%
- activity at 0.01 µM [2, 8]: 96.6%
- activity at 0.01 µM [2, 9]: 113%
- activity at 0.01 µM [2, 10]: 100%
- viability at 0.01 µM [2, 11]: 96.3%
- viability at 0.1 µM [2, 7]: 95%
- activity at 0.1 µM [2, 8]: 95.4%
- activity at 0.1 µM [2, 9]: 105%
- activity at 0.1 µM [2, 10]: 98.9%
- viability at 0.1 µM [2, 11]: 95%
- viability at 1 µM [2, 7]: 99.8%
- activity at 1 µM [2, 8]: 99.9%
- activity at 1 µM [2, 9]: 108%
- activity at 1 µM [2, 10]: 97.4%
- viability at 1 µM [2, 11]: 99.8%
- viability at 10 µM [2, 7]: 104%
- activity at 10 µM [2, 8]: 105%
- activity at 10 µM [2, 9]: 119%
- activity at 10 µM [2, 10]: 96%
- viability at 10 µM [2, 11]: 104%
- viability at 100 µM [2, 7]: 39.7%
- activity at 100 µM [2, 8]: 40.3%
- activity at 100 µM [2, 9]: 91.2%
- activity at 100 µM [2, 10]: 101%
- viability at 100 µM [2, 11]: 69.7%
- minimal effective concentration ([2]; read-out: endo.cyto.24hr POD): 41.1 µM
- minimal effective concentration ([2]; read-out: endo.mito.24hr POD): 41.1 µM
- minimal effective concentration [2, 12]: 100 µM
- minimal effective concentration ([2]; read-out: endo.nma.24hr POD): 100 µM
- minimal effective concentration ([2]; read-out: endo.tc.24hrs POD): 52 µM
